Reference: patent US11667602B2, “Compounds and their use” (AstraZeneca AB, priority 2020, dated 2023)

Molecular target: T1, human RXFP1 (Homo sapiens, UniProt Q9HBX9)
T1 sequence (Q9HBX9 1-757): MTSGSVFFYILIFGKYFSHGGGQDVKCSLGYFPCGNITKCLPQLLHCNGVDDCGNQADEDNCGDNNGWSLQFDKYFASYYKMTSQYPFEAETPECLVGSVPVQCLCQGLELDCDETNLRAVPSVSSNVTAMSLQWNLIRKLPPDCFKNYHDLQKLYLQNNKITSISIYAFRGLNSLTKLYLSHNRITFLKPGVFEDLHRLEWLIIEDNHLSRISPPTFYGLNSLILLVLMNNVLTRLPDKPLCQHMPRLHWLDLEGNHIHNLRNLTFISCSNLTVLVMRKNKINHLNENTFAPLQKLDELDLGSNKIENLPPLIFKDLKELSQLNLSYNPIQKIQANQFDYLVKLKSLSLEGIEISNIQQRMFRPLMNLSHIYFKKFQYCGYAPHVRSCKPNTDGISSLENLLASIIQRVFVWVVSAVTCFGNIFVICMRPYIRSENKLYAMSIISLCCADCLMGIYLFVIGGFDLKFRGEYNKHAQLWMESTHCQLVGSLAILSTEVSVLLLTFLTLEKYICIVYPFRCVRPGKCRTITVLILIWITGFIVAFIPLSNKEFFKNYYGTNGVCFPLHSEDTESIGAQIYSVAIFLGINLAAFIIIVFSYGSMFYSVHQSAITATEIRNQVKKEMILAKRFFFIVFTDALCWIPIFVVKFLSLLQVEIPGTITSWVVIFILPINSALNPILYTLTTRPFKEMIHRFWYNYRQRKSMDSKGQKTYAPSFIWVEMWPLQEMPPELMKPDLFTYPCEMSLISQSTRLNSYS
Experiment: RXFP1 Hu cAMP (Test A)
Format: cell-based
Parameters: expressed in transfected cells; host or cells: Jump-In T-REx CHO-K1 cells (ThermoFisher), induced with 10 ng/ml doxycycline for 24 h
Details: RXFP1 Hu cAMP; for EC50: read-out: Test A EC50
Method in brief: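 Cells: CHO-K1 stably carrying human RXFP1, expressed after 24 h 10 ng/ml doxycycline; 0.5 mM IBMX final, HTRF detection after 2 h at room temperature.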

Row | Test A Sinf [%] | EC50 [nM] | Compound
1 | 98 | 900 | COc1cc(F)c(OC2CCCC(C(=O)O)C2)cc1C(=O)N[C@@H]1[C@H]2CC[C@H](C2)[C@@H]1C(=O)Nc1cccc(S(=O)(=O)C(F)(F)F)c1 (single isomer, unassigned) [Example 446]
2 | 125 | 1.1 | COc1cc(F)c(O[C@H]2CC[C@@](C)(C(=O)O)CC2)cc1C(=O)N[C@@H]1[C@@H]2CC[C@@H](C2)[C@@H]1C(=O)Nc1ccc(F)c(S(F)(F)(F)(F)F)c1 (racemic) [Example 371]
3 | 78 | – | COc1cc(F)c(-c2ccc(C(N)(CO)CO)cc2)cc1C(=O)N[C@@H]1[C@H]2CC[C@H](C2)[C@@H]1C(=O)Nc1cccc(S(=O)(=O)C(F)(F)F)c1 [Example 265, (1R,2S,3R,4S)-3-(4′-(2-Amino-1,3-dihydroxypropan-2-yl)-6-fluoro-4-methoxy-[1,1′-biphenyl]-3-carboxamido)-N-(3-((trifluoromethyl)sulfonyl)phenyl)bicyclo[2.2.1]heptane-2-carboxamide]
4 | – | > 40000 | COc1cc(F)c(O[C@H]2CC[C@@H](C(=O)OC)CC2)cc1C(=O)N[C@@H]1C[C@H](O)C[C@@H]1C(=O)Nc1cccc(S(=O)(=O)C(F)(F)F)c1 (racemic) [Example 496]
5 | 100 | 1200 | COc1cc(C#N)c(O[C@H]2CC[C@@](C)(C(=O)O)CC2)cc1C(=O)N[C@@H]1[C@H]2CC[C@H](C2)[C@@H]1C(=O)NCC(C)(C)CO [Example 138]
6 | 107 | 4900 | COc1cc(F)c(-c2ccnc(C(=O)O)c2)cc1C(=O)N[C@H]1[C@@H](C(=O)Nc2cccc(S(=O)(=O)C(F)(F)F)c2)[C@@H]2C=C[C@H]1C2 (racemic) [Example 272, rac-4-(2-Fluoro-4-methoxy-5-(((1R,2R,3S,4S)-3-((3-((trifluoromethyl)sulfonyl)phenyl)carbamoyl)bicyclo[2.2.1]hept-5-en-2-yl)carbamoyl)phenyl)picolinic acid]
7 | – | > 40000 | COc1cc(F)c(-c2cccc(C(=O)O)n2)cc1C(=O)N[C@H]1[C@@H](C(=O)Nc2cccc(S(=O)(=O)C(F)(F)F)c2)[C@@H]2C=C[C@H]1C2 (racemic) [Example 279]
8 | 107 | 720 | COc1cc(C#N)c(O[C@H]2CC[C@@](C)(C(=O)O)CC2)cc1C(=O)N[C@@H]1[C@H]2CC[C@H](C2)[C@@H]1C(=O)NCc1ccc(F)c(F)c1 [Example 123]
9 | 93 | 4.1 | COc1cc(C#N)c(O[C@H]2CC[C@@](C)(C(=O)O)CC2)cc1C(=O)N[C@@H]1C2CCC(CC2)[C@@H]1C(=O)NCC1(C)CCC1 (racemic) [Example 468, (1R,4s)-4-(2-Cyano-4-methoxy-5-(((2SR,3RS)-3-(((1-methylcyclobutyl)methyl)carbamoyl)bicyclo[2.2.2]octan-2-yl)carbamoyl)phenoxy)-1-methylcyclohexane-1-carboxylic acid]
10 | 105 | – | COc1cc(F)c(-c2cccc(C(=O)O)c2F)cc1C(=O)N[C@H]1[C@@H](C(=O)Nc2cccc(S(=O)(=O)C(F)(F)F)c2)[C@@H]2C=C[C@H]1C2 (racemic) [Example 233]
11 | 90 | 130 | CC1(CNC(=O)[C@H]2[C@@H]3CC[C@@H](C3)[C@H]2NC(=O)c2cc(O[C@H]3CC[C@@](C)(C(=O)O)CC3)c(F)cc2Cl)CCC1 [Example 398, (1S,4s)-4-(4-Chloro-2-fluoro-5-(((1S,2R,3S,4R)-3-(((1-methylcyclobutyl)methyl)carbamoyl)bicyclo[2.2.1]heptan-2-yl)carbamoyl)phenoxy)-1-methylcyclohexane-1-carboxylic acid]
12 | 170 | 130 | COc1cc(C#N)c(O[C@H]2CC[C@@](C)(C(=O)O)CC2)cc1C(=O)Nc1cc(Cl)ccc1C(=O)NC12CC(C1)C2 [Example 161]
13 | – | > 40000 | COc1cc(F)c(Cn2ccc(C(=O)O)n2)cc1C(=O)N[C@@H]1[C@H]2CC[C@H](C2)[C@@H]1C(=O)Nc1cccc(S(=O)(=O)C(F)(F)F)c1 [Example 222, 1-(2-Fluoro-4-methoxy-5-(((1S,2R,3S,4R)-3-((3-((trifluoromethyl)sulfonyl)phenyl)carbamoyl)bicyclo[2.2.1]heptan-2-yl)carbamoyl)benzyl)-1H-pyrazole-3-carboxylic acid]
14 | 82 | – | COc1cc(F)c(O[C@H]2CC[C@@H](C(=O)O)CC2)cc1C(=O)N[C@@H]1[C@H](C(=O)Nc2ccc(F)c(C(F)(F)F)c2)[C@H]2C=C[C@@H]1C2 [Example 501, (1R,4s)-4-(2-Fluoro-5-(((1S,2S,3R,4R)-3-((4-fluoro-3-(trifluoromethyl)phenyl)carbamoyl)bicyclo[2.2.1]hept-5-en-2-yl)carbamoyl)-4-methoxyphenoxy)cyclohexane-1-carboxylic acid]
15 | 95 | 160 | COc1cc(C#N)c(O[C@H]2CC[C@@](C)(C(=O)O)CC2)cc1C(=O)N[C@@H]1[C@H]2CC[C@H](C2)[C@@H]1C(=O)NC1CCCC1 [Example 139]
16 | 104 | 540 | COc1cc(F)c(O[C@H]2CC[C@@](C)(C(=O)O)CC2)cc1C(=O)N[C@@H]1C[C@H](OC)C[C@@H]1C(=O)Nc1cccc(S(=O)(=O)C(F)(F)F)c1 (stereo in doubt) [Example 335]

Second part, the compound before the results:

Row | Compound | Test A Sinf [%] | EC50 [nM]
17 | (1R,4s)-4-(2-Fluoro-4-methoxy-5-(((1R*,2S*,3R*,4S*)-3-(((1-methylcyclobutyl)methyl)carbamoyl)bicyclo[2.2.2]oct-5-en-2-yl)carbamoyl)phenoxy)-1-methylcyclohexane-1-carboxylic acid [Example 545] | 91 | –
18 | COc1cc(F)c(-c2ccc(C(=O)O)cc2)cc1C(=O)N[C@H]1[C@@H]2CC[C@@H](C2)[C@H]1C(=O)N[C@H]1CCCN(S(=O)(=O)C(F)(F)F)C1 (single isomer, unassigned) [Example 314, 2′-Fluoro-4′-methoxy-5′-(((1R*,2S*,3R*,4S*)-3-(((S)-1-((trifluoromethyl)sulfonyl)piperidin-3-yl)carbamoyl)bicyclo[2.2.1]heptan-2-yl)carbamoyl)-[1,1′-biphenyl]-4-carboxylic acid] | 74 | 7800
19 | (1R,4s)-4-(2-fluoro-5-(((1S*,2S*,3R*,4R*)-3-((4-fluoro-3-(pentafluoro-λ6-sulfaneyl)phenyl)carbamoyl)bicyclo[2.2.1]heptan-2-yl)carbamoyl)-4-methoxyphenoxy)-1-methylcyclohexane-1-carboxylic acid [Example 521] | 99 | –
20 | COc1cc(F)c(OC2CCC(C)(C(=O)O)CC2)cc1C(=O)NC1COCC1C(=O)Nc1ccc(F)c(S(F)(F)(F)(F)F)c1 [Example 564, (1R,4s)-4-(2-Fluoro-5-(((3S*,4R*)-4-((4-fluoro-3-(pentafluoro-λ6-sulfaneyl)phenyl)carbamoyl)tetrahydrofuran-3-yl)carbamoyl)-4-methoxyphenoxy)-1-methylcyclohexane-1-carboxylic acid] | – | > 40000
21 | COCC1(CNC(=O)[C@H]2[C@@H]3CC[C@@H](C3)[C@H]2NC(=O)c2cc(O[C@H]3CC[C@@](C)(C(=O)O)CC3)c(F)cc2OC)CCC1 [Example 594] | 96 | 530
22 | (1R,4s)-4-(2-Fluoro-5-(((1S*,2R*)-2-((4-fluoro-3-(pentafluoro-λ6-sulfaneyl)phenyl)carbamoyl)cyclobutyl)carbamoyl)-4-methoxyphenoxy)-1-methylcyclohexane-1-carboxylic acid [Example 571] | 100 | –
23 | COc1cc(F)c(OCCCCCC(=O)O)cc1C(=O)N[C@H]1[C@@H](C(=O)Nc2cccc(S(=O)(=O)C(F)(F)F)c2)[C@@H]2C=C[C@H]1C2 (racemic) [Example 455] | 91 | 160
24 | COc1cc(F)c(O[C@H]2CC[C@@](C)(C(=O)O)CC2)cc1C(=O)N[C@@H]1[C@H]2CC[C@H](C2)[C@@H]1C(=O)NC(C)(C)C [Example 602] | 100 | 250
25 | COc1cc(F)c(-c2cnc(C(=O)O)cn2)cc1C(=O)N[C@H]1[C@@H](C(=O)Nc2cccc(S(=O)(=O)C(F)(F)F)c2)[C@@H]2C=C[C@H]1C2 (racemic) [Example 276] | 95 | 3300
26 | COc1cc(F)c(OC[C@H]2CC[C@@H](C(=O)O)CC2)cc1C(=O)N[C@@H]1[C@H]2CC[C@H](C2)[C@@H]1C(=O)Nc1cccc(S(=O)(=O)C(F)(F)F)c1 [Example 440] | 111 | 1200
27 | COc1cc(F)c(O[C@H]2CC[C@@](C)(C(=O)O)CC2)cc1C(=O)N[C@@H]1COCC[C@@H]1C(=O)Nc1cccc(S(=O)(=O)C(F)(F)F)c1 (racemic) [Example 340] | 100 | 1800
